Molecular target: T1, Angiotensin II Receptor (Bos taurus, UniProt P25104)
T1 construct: The brownish tissue forming the adrenal cortex is scraped off and finely minced with scissors before homogenization; from tissue; host or cells: beef adrenal cortex, microsomal membranes (100,000 x g pellet)
T1 sequence (P25104 1-359): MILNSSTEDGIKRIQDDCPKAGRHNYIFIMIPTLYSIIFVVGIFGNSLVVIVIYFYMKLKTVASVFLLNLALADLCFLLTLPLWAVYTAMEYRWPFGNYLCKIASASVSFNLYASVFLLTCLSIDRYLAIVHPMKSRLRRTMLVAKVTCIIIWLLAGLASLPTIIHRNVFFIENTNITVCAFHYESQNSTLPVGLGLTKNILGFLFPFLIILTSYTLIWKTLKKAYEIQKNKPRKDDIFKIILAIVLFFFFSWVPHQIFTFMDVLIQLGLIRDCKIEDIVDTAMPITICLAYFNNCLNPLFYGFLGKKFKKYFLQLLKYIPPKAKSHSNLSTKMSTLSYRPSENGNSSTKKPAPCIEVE
Experiment: Receptor binding assay: binding of [^125 I](Sar^1,Ile^8)AngII
Settings: beef adrenal cortex membranes, 60 min, room temperature
Excerpt: Beef adrenals are obtained from a local slaughter house (Maxwell-Cohen). [^125 I](Sar^1,Ile^8)AngII, S. A. 2200 Ci/mmole, is purchased from Dupont (NEN®, Boston, Mass.). All unlabeled AngII analogs, Dimethylsulfoxide (DMSO), nucleotides, bovine serum albumin (BSA) are purchased from Sigma Chemical Co., St. Louis, Mo. U.S.A.
Approximately sixteen (16) to twenty (20) beef adrenal glands are processed as follows: fresh adrenal glands received on crushed ice are cleaned of fatty tissues and the tough membranes encapsulating the glands are removed and discarded. […] A 100 ul aliquot is withdrawn and the protein content of the preparation is determined by the Lowry's method (Lowry, O. H., Rosebrough, N. P., Farr, A. L. and Randall, R. J., Protein measurement with Polin phenol reagent. J. Biol. Chem., […], 265-275, 1951). […]
The binding of [^125 I](Sar^1 Ile^8)AngII to microsomal membranes is initiated by the addition of reconstituted membranes (1:10 vols.) in freshly made 50.0 mM Tris.HCl buffer, pH 7.4 containing 0.25% heat inactivated bovine serum albumin (BSA): 80 ul membrane protein (10 to 20 ug/assay) to wells already containing 100 ul of incubation buffer (as described above) and 20 ul [^125 I](Sar^1 Ile^8)AngII (Specific Activity, 2200 Ci/mmole). Non-specific binding is measured in the presence of 1.0 uM unlabeled (Sar^1,Ile^8)AngII, added in 20 ul volume. […]

With `CCCCc1nc2ccc(C(C)(O)CC3CCCN3)cc2c(=O)n1Cc1ccc(-c2ccccc2-c2nnn[nH]2)cc1` (stereo not drawn) [Example 79, CIS-2-Butyl-6-[1-hydroxy-1-methyl-2-(2-pyrrolidinyl)ethyl]-3-[[21-(1H-tetrazol-5-yl)[1,1'-biphenyl]-4-yl]methyl]-4(3H)-quinazolinone] as the molecule, how does the IC50 read?
Its IC50 is 3.5 nM.
